Structures can show the parent of a compound that is named as a salt.
Legend:
[1] = system: human mobilized peripheral blood; assay: Cell viability by trypan blue exclusion; assay type: cell-based; settings: 0.1-10 μM, 5 days
Experimental: FIGS. 1D-E: Measurements of cell viability using trypan blue on human mobilized peripheral blood treated with mefloquine or thioridazine for 5 days. […] In order to further investigate the compounds identified by the screen, mefloquine and thioridazine were used to treat human mobilized peripheral blood for 5 days. Cell viability was measured using trypan blue exclusion.

human iPS cells = assay: Frequency of Oct4+ cells by flow cytometry; assay type: cell-based; settings: 7 days of treatment; compared to MEFCM and DMSO
From the text: FIG. A: identification of inducers of stem cell differentiation. 300 compounds were screened to detect the fluorescence emitted from the Oct4-GFP reporter expressed in transformed cells and normalized to the relative cell nuclear number as defined by Hoechst staining. GFP/Hoechst ratios below zero, the threshold defined by BMP4 (a known stem cell differentiator), are considered potent inducers of stem cells differentiation. FIGS. B-C: the frequency of Oct4+ human iPS cells measured using flow cytometry following 7 days of treatment with Mefloquine (MEFLO) or thioridazine (THIO) compared to culture media (MEFCM) and culture media supplemented with DMSO (DMSO). […] FIGS. 1D-E: Measurements of cell viability using trypan blue on human mobilized peripheral blood treated with mefloquine or thioridazine for 5 days. […] Mefloquine (MEFLO) and thioridazine (THIO) were then tested in human iPS cells. Following 7 days of treatment, the frequency of Oct4+ cells were measured using flow cytometry and compared to culture media (MEFCM) and culture media supplemented with DMSO (DMSO) as a vehicle to augment compound solubility.

[2] = system: t-hPSCs that contain an Oct4-GFP reporter gene; assay: Screen of 300 compounds for inducers of stem cell differentiation (Oct4-GFP/Hoechst ratio); assay type: cell-based, human; settings: 72 hours after exposure; fluorescence plate reader
From the text: FIG. A: identification of inducers of stem cell differentiation. 300 compounds were screened to detect the fluorescence emitted from the Oct4-GFP reporter expressed in transformed cells and normalized to the relative cell nuclear number as defined by Hoechst staining. GFP/Hoechst ratios below zero, the threshold defined by BMP4 (a known stem cell differentiator), are considered potent inducers of stem cells differentiation. FIGS. B-C: the frequency of Oct4+ human iPS cells measured using flow cytometry following 7 days of treatment with Mefloquine (MEFLO) or thioridazine (THIO) compared to culture media (MEFCM) and culture media supplemented with DMSO (DMSO). […] FIGS. 1D-E: Measurements of cell viability using trypan blue on human mobilized peripheral blood treated with mefloquine or thioridazine for 5 days. […]
Plates containing the cells were analyzed 72 hours after exposure to the compounds using a fluorescence plate reader capable of detecting the fluorescence emitted from the Oct4-GFP reporter expressed in transformed cells and normalized to the relative cell nuclear number as defined by Hoechst staining. […]

[3] = system: transformed stem cells (Oct4-GFP); assay: High Content Screening of Oct4-GFP expression (ArrayScan HCS reader); assay type: cell-based, human
Experimental: At day 2 and 3 BMP4 was added to each of the treated wells at various concentrations. On day 4 microtiter plates containing treated transformed stem cells were imaged using the cellomics ArrayScan HCS reader (Thermofisher). Oct4-GFP expression was shown in green while cell nuclei are shown in blue (Hoescht 33342). A) No BMP untreated control.
Cells were grown as described in FIG. 9 with the exception of the addition of BMP4 which was replaced by DMSO at multiple concentrations as described in the Figure legends. DMSO is a chemical compound used in drug studies as a solvent which is known to induce stem cell differentiation. On day 5, after cell seeding and culture, microtiter plates were imaged using the ArrayScan HCS reader (Thermofisher). […] D) Cell numbers were quantified based on the automated detection and segregation of cells labelled by the nuclear dye Hoescht. […] All images were analyzed using the Cellomics software.
Transformed stem cells were seeded as single cells and grown in culture using standard stem cell culture conditions for 4 days. […] On day 4 microtiter plates containing treated transformed stem cells were imaged using the cellomics ArrayScan HCS reader (Thermofisher). […]
Due to image analysis limitations similar data could not be obtained when normal cells were used for the assays. […] All images were analyzed using the Cellomics software.

[4] = system: transformed pluripotent stem cells with EOS Oct4-GFP reporter; assay: High throughput plate reader screen for loss of pluripotency (Oct4-Alexa 647 antibody and GFP); assay type: cell-based, human; settings: 1, 10, 100 ng/mL BMP4 for 4 days, n=3
Experimental: Transformed pluripotent stem cells were passaged as single cells using Trypsin and seeded at 1000 cells per well into 96 well optical imaging plates coated with Matrigel ® containing 100 ul mouse embryonic fibroblast conditioned media (MEF-CM). Plates were incubated at 37 degrees for 24 Hr before treatment with bone morphogenic protein 4 (BMP4) commenced. Cells were treated with either 1 ng/mL, 10 ng/mL, 100 ng/mL, or 0 ng/mL BMP4 for 4 days (n=3). After 4 days cells were fixed with 2% paraformaldehyde and stained with Oct4-Alexa 647 antibody. Cells were loaded into a plate reader and measured at excitation emission pairs of 650/665 and 488/520 nm to measure Oct4-Alexa 647 antibody (top graph) and GFP (bottom graph) respectively. Pluripotency (measured by the loss of OCT4 and GFP expression) decreased with the increase in differentiation inducing compound BMP4. Similar results were obtained when other compounds were tested. […]
The versatility of transformed human pluripotent stem cells is illustrated by the multiple types of assays that it enables. […] Cells were loaded into a plate reader and measured at excitation emission pairs of 650/665 and 488/520 nm to measure Oct4-Alexa 647 antibody (FIG. 7 top graph) and GFP (FIG. 7 bottom graph) respectively. Pluripotency (measured by the loss of OCT4 and GFP expression) decreased with the increase in differentiation inducing compound BMP4. […]

[5] = system: transformed pluripotent stem cells that contain an Oct4-GFP reporter; assay: Microscope imaging of Oct4 antibody staining and GFP after BMP-4 treatment; assay type: cell-based, human; settings: increased amounts of BMP-4, 4 days; microscope images
Experimental: Transformed pluripotent stem cells that contain an Oct4-GFP reporter were plated, cultured, treated with BMP-4 and fixed as described in FIG. 7. Cells were permeabilized with 0.1% TritonX-100 and stained with Oct4 antibody conjugated with Alexa 647. The cell nuclei were stained with Hoechst 33342. Images were collected using 10× objective on Olympus microscope, and analysed using Image-Pro Plus software.
Cells were permeabilized with 0.1% TritonX-100 and stained with Oct4 antibody conjugated with Alexa 647. The cell nuclei were stained with Hoechst 33342. Images were collected using 10× objective on Olympus microscope, and analysed using Image-Pro Plus software.

Molecule | Cell viability relative to control samples (0 μM) [1] | Frequency of Oct4+ cells (human iPS cells) | Induction of t-hPSC differentiation (GFP/Hoechst ratio below zero, the threshold defined by BMP4) [2] | further results
OC(c1cc(C(F)(F)F)nc2c(C(F)(F)F)cccc12)C1CCCCN1 (centres unmarked) [Mefloquine HCl] | did not reduce cell viability | decrease | potent inducers of t-hPSCs differentiation | 
bone morphogenic protein 4 [BMP4] |  |  |  | Oct4-GFP expression ([3]; BMP4 added at day 2 and 3, imaged day 4): significant loss of GFP expression; Pluripotency (measured by the loss of OCT4 and GFP expression) [4]: decreased; GFP fluorescence (Oct4-GFP reporter) [5]: decreased GFP fluorescence; Oct-4 antibody staining [5]: decreased Oct-4 antibody staining
C[S+](C)[O-] [DMSO] |  |  |  | Oct4-GFP expression ([3]; DMSO 0%, 0.01%, 2% (v/v) for 4 consecutive days, imaged day 5): decreasing expression levels of GFP
CSc1ccc2c(c1)N(CCC1CCCCN1C)c1ccccc1S2 (centres unmarked) [Thioridazine HCl] | did not reduce cell viability | decrease | potent inducers of t-hPSCs differentiation | 
